Where a name gives a salt, the structure may show the parent alone.
Tests used:
[1] = test system: Strep. pyogenes ATCC 700294; test: MIC determination by microbroth dilution; type: cell-based, Streptococcus pyogenes; conditions: Streptococcus pyogenes, ATCC700294, read-out: MIC S. pyogenes
E. faecalis ATCC 33186 = test: MIC determination by microbroth dilution; type: cell-based, Enterococcus faecalis; conditions: Enterococcus faecalis, ATCC33186
M. tuberculosis H37Rv = test: MIC determination by microbroth dilution, anti-tuberculosis activity; type: cell-based, Mycobacterium tuberculosis; conditions: Mycobacterium tuberculosis, H37RV, 168 h; read-out: MIC
[2] = test system: Strenotrophomonas maltophilia ATCC 13637; test: MIC determination by microbroth dilution; type: cell-based
P. aeruginosa PAO1 = test: MIC determination by microbroth dilution; type: cell-based, Pseudomonas aeruginosa; conditions: Pseudomonas aeruginosa
[3] = test system: Burkholderia cepacia ATCC 25416; test: MIC determination by microbroth dilution; type: cell-based; conditions: ATCC25416, read-out: MIC B. cepcia
[4] = test system: S. aureus 8325 or strain ATCC 29213; test: MIC determination by microbroth dilution; type: cell-based, Staphylococcus aureus; conditions: Staphylococcus aureus, ATCC29213; S. aureus 8325 or strain ATCC 29213 (for 1471-1544)
[5] = test system: Proteus mirabilis ATCC 25933; test: MIC determination by microbroth dilution; type: cell-based; conditions: ATCC25933
[6] = test system: Proteus vulgaris ATCC 33420; test: MIC determination by microbroth dilution; type: cell-based; conditions: ATCC33420
[7] = test system: Klebsiella pneumoniae ATCC 33495; test: MIC determination by microbroth dilution; type: cell-based; conditions: ATCC33495
[8] = test system: Strep. pneumoniae DAW27 or strain R6; test: MIC determination by microbroth dilution; type: cell-based, Streptococcus pneumoniae; conditions: Streptococcus pneumoniae; Strep. pneumoniae DAW27 or strain R6 (for 1443-1544); read-out: MIC S. pneumoniae
E. coli K12 ΔtolC = test: microbe, parasite or virus in culture; type: cell-based; conditions: Escherichia coli, read-out: MIC E. coli K12 ΔtolC
[9] = test system: Acinetobacter baumannii ATCC 19606; test: MIC determination by microbroth dilution; type: cell-based; conditions: ATCC19606
B. anthracis Sterne 34F2 = test: microbe, parasite or virus in culture; type: cell-based, Bacillus anthracis; conditions: Bacillus anthracis, STERNE34F2, read-out: MIC B. anthracis 34F2
E. coli ribosomes = type: biochemical; conditions: for IC50, 50% inhibition of luciferase biosynthesis in S30 assay: E. coli S30 transcription/translation assay
E. coli K12 = test: MIC determination by microbroth dilution; type: cell-based, Escherichia coli; conditions: Escherichia coli, K12

Q: For `CN[C@@H]1[C@H](O)[C@H](NC)C2O[C@]3(O)C(OC2[C@H]1O)O[C@H](C)C[C@H]3NC(=O)CNC(C)(C)C` (stereo partly drawn) [Compound 1351, 3′-Dihydro-3′-deoxy-4(R)-(tert-butylamino)-acetylamino spectinomycin Dihydrochloride], which MIC [1] is on record?
A: 100 µg/mL

Q: And the MIC (E. faecalis ATCC 33186)?
A: > 200 µg/mL

Q: What about the MIC (M. tuberculosis H37Rv) of the same molecule?
A: 25 µg/mL

Q: And the MIC [2]?
A: 50 µg/mL

Q: And the MIC (P. aeruginosa PAO1)?
A: 200 µg/mL

Q: And the MIC [3]?
A: > 200 µg/mL

Q: What about the MIC [4] of the same molecule?
A: 200 µg/mL

Q: What about the MIC [5] of the same molecule?
A: > 200 µg/mL

Q: And the MIC [6]?
A: > 200 µg/mL

Q: What about the MIC [7] of the same molecule?
A: 200 µg/mL

Q: And the MIC [8]?
A: 200 µg/mL

Q: And the MIC (E. coli K12 ΔtolC)?
A: 50 µg/mL

Q: What about the MIC [9] of the same molecule?
A: > 200 µg/mL

Q: What about the MIC (B. anthracis Sterne 34F2) of the same molecule?
A: 50 µg/mL

Q: And the “IC50, 50% inhibition of luciferase biosynthesis in S30 assay” value (from here on “IC50, 50% inhibition”) (E. coli ribosomes)?
A: 0.22 µg/mL

Q: What about the “relative inhibitory activity on luciferase production” value (E. coli ribosomes; tested at 0.66 and 6.6 μM, FIG. 5) of the same molecule?
A: next most active

Q: And the MIC (E. coli K12)?
A: > 200 µg/mL

Q: How did the MIC [1] turn out when `CN[C@@H]1[C@H](O)[C@H](NC)C2O[C@]3(O)C(OC2[C@H]1O)O[C@H](C)C[C@H]3NC(=O)Cc1ccccc1OC` (stereo partly drawn) [Compound 1448, 3′-Dihydro-3′-deoxy-4(R)-(2-methoxy-phenyl)acetylamino spectinomycin Dihydrochloride] was run?
A: 25 µg/mL

Q: What about the MIC (E. faecalis ATCC 33186) of the same molecule?
A: > 200 µg/mL

Q: What about the MIC (M. tuberculosis H37Rv) of the same molecule?
A: 200 µg/mL

Q: What about the MIC [2] of the same molecule?
A: > 200 µg/mL

Q: And the MIC (P. aeruginosa PAO1)?
A: > 200 µg/mL

Q: What about the MIC [3] of the same molecule?
A: 200 µg/mL

Q: And the MIC [4]?
A: > 200 µg/mL

Q: And the MIC [5]?
A: > 200 µg/mL

Q: What about the MIC [6] of the same molecule?
A: > 200 µg/mL

Q: And the MIC [7]?
A: > 200 µg/mL

Q: What about the MIC [8] of the same molecule?
A: 25 µg/mL

Q: What about the MIC (E. coli K12 ΔtolC) of the same molecule?
A: > 200 µg/mL

Q: And the MIC [9]?
A: > 200 µg/mL

Q: What about the MIC (B. anthracis Sterne 34F2) of the same molecule?
A: > 200 µg/mL

Q: And the “IC50, 50% inhibition” value (E. coli ribosomes)?
A: 2.41 µg/mL

Q: And the MIC (E. coli K12)?
A: > 200 µg/mL

Q: What does the source list for `CN[C@@H]1[C@H](O)[C@H](NC)C2O[C@]3(O)C(OC2[C@H]1O)O[C@H](C)C[C@H]3NC(=O)Cc1ccncc1` (stereo partly drawn) [Compound 1413, 3′-Dihydro-3′-deoxy-4(R)-(pyridin-4-yl)acetylamino spectinomycin Dihydrochloride]?
A: MIC [1]: 200 µg/mL; MIC (E. faecalis ATCC 33186): > 200 µg/mL; MIC (M. tuberculosis H37Rv): 100 µg/mL; MIC [2]: > 200 µg/mL; MIC (P. aeruginosa PAO1): > 200 µg/mL; MIC [3]: > 200 µg/mL; MIC [4]: 50 µg/mL; MIC [5]: > 200 µg/mL; MIC [6]: > 200 µg/mL; MIC [7]: > 200 µg/mL; MIC [8]: > 200 µg/mL; MIC (E. coli K12 ΔtolC): 50 µg/mL; MIC [9]: > 200 µg/mL; MIC (B. anthracis Sterne 34F2): 200 µg/mL; IC50, 50% inhibition of luciferase biosynthesis in S30 assay (E. coli ribosomes): 1.92 µg/mL; MIC (E. coli K12): 200 µg/mL

Q: Which results are given for `CN[C@@H]1[C@H](O)[C@H](NC)C2O[C@]3(O)C(OC2[C@H]1O)O[C@H](C)C[C@H]3NC(=O)Cc1ccc(F)cc1` (stereo partly drawn) [Compound 1367, 3′-Dihydro-3′-deoxy-4(R)-(4-fluoro-phenyl)-acetylamino spectinomycin Dihydrochloride]?
A: MIC [1]: 50 µg/mL; MIC (E. faecalis ATCC 33186): 200 µg/mL; MIC (M. tuberculosis H37Rv): 3.1 µg/mL; MIC [2]: > 200 µg/mL; MIC (P. aeruginosa PAO1): 100 µg/mL; MIC [3]: > 200 µg/mL; MIC [4]: 50 µg/mL; MIC [5]: > 200 µg/mL; MIC [6]: > 200 µg/mL; MIC [7]: > 200 µg/mL; MIC [8]: 50 µg/mL; MIC (E. coli K12 ΔtolC): 50 µg/mL; MIC [9]: > 200 µg/mL; MIC (B. anthracis Sterne 34F2): 50 µg/mL; IC50, 50% inhibition of luciferase biosynthesis in S30 assay (E. coli ribosomes): 1.05 µg/mL; MIC (E. coli K12): 200 µg/mL

Q: How did the MIC [1] turn out when `CN[C@@H]1[C@H](O)[C@H](NC)C2O[C@]3(O)C(OC2[C@H]1O)O[C@H](C)C[C@H]3NC(=O)Cc1nc2ccccc2o1` (stereo partly drawn) [Compound 1465, 3′-Dihydro-3′-deoxy-4(R)-(benzooxazol-2-yl)acetylamino spectinomycin trihydrobromide] was run?
A: 12.5 µg/mL

Q: And the MIC (E. faecalis ATCC 33186)?
A: 100 µg/mL

Q: And the MIC (M. tuberculosis H37Rv)?
A: 3.12 µg/mL

Q: What about the MIC [2] of the same molecule?
A: > 200 µg/mL

Q: What about the MIC (P. aeruginosa PAO1) of the same molecule?
A: > 200 µg/mL

Q: What about the MIC [3] of the same molecule?
A: > 200 µg/mL

Q: And the MIC [4]?
A: > 200 µg/mL

Q: And the MIC [5]?
A: > 200 µg/mL

Q: And the MIC [6]?
A: > 200 µg/mL

Q: And the MIC [7]?
A: > 200 µg/mL

Q: What about the MIC [8] of the same molecule?
A: 12.5 µg/mL

Q: What about the MIC (E. coli K12 ΔtolC) of the same molecule?
A: 12.5 µg/mL

Q: And the MIC [9]?
A: > 200 µg/mL

Q: And the MIC (B. anthracis Sterne 34F2)?
A: 100 µg/mL

Q: What about the “IC50, 50% inhibition” value (E. coli ribosomes) of the same molecule?
A: 0.50 µg/mL

Q: What about the MIC (E. coli K12) of the same molecule?
A: > 200 µg/mL

Source: patent US9284325B2, “Spectinamides as anti-tuberculosis agents” (UNIVERSITY OF TENNESSEE RESEARCH FOUNDATION, priority 2009, dated 2016)
